Patent publication US7884133B2, “Pharmaceutical compositions containing (+) cannabidioil and derivatives thereof and some such novel derivatives” (priority 2003, dated 2011)
“Also recorded” adds a separate entry of the source.

How the values were obtained:
[1] = tested on: formalin-induced peripheral pain in mice; test: Formalin-induced peripheral pain (second phase); format: in vivo; conditions: formalin 4% in hind footpad, 45 minutes after drug; paw licks over 60 minutes
Protocol: Formalin (4%) was injected in the left hind footpad and the number of licks of the injected foot were recorded for each 5 minutes interval for the 60 minutes starting immediately after formalin application.
(§1) Pain perception on a hot plate, is considered to be mediated by a central mechanism whereas the second, late phase of the response to an implantar injection of formalin reflects inflammatory pain mechanisms [Tjolsen, A. and Hole (1997) id. ibid.].
(§2) Thus, central pain perception was assessed by the analgesic response on a hot plate (55° C., Columbus Instruments, OH, USA). Peripheral pain was measured by the response to implantar injection of formalin (4%) 45 minutes after injection of the drug.

female Sabra mice [2] = test: Intestinal motility (defecation, number of fecal pellets); format: in vivo; conditions: 20 mg/kg i.p.
Protocol: (§3) Defecation was measured as the number of fecal pellets voided in the open field. In some experiments (as indicated below), fecal pellets and body temperature were assessed for a prolonged period (3 hr).

[3] = tested on: CB1−/− receptor knockout mice; test: Intestinal motility in CB1−/− receptor knockout mice; format: in vivo; conditions: 20 mg/kg i.p., defecation rate recorded for 3 hours
Protocol: Female CB1−/− knockout mice were injected i.p. with (+)-7-OH-CBD-DMH, (+)-CBD-DMH or Δ^9-THC (20 mg/kg). Intestinal motility (defecation rate) was recorded for a period of 3 hours.
(§4) Female Sabra mice (2-3 months of age) were purchased from Harlan, Israel. Breeding pairs of CB1−/− receptor knockout mice were provided by Prof. A. Zimmer, University Clinic Bonn, Germany.
as §3

female Sabra mice [4] = test: Tetrad overall (central cannabinoid activity); format: in vivo; conditions: 20 mg/kg i.p., tested 60 minutes later
Protocol: Central activity of the compounds of the invention was assessed in the “tetrad”, which is a series of assays commonly used to measure central cannabimimmetic effects [Martin, B. R. et al. (1991) Pharmacol. Biochem. Behav. 40(3): 471-8; Fride, E. and C. Sanudo-Pena (2002) id. ibid.]. Three parameters for peripheral activity were used. Since gastrointestinal transit is regulated locally in the periphery rather than by centrally located CB1 receptors [Izzo (2000) id. ibid.; Landi (2002) id. ibid.], intestinal motility was one of the parameters used, and peripheral cannabinoid effects was measured as rates of defecation (see Example 29).
(§5) Mice were injected with antagonist 90 minutes before testing and/or with agonist 60 minutes before testing in a series of four assays which reflect central cannabinoid activity [Martin (1991) id. ibid.; modified by Fride, E. and R. Mechoulam (1993) id. ibid.]. This “tetrad” consists of, consecutively, ambulation and rearing in an open field (8 minutes), immobility on an elevated ring of 5 cm diameter (4 minutes), rectal temperature (Yellow

CB2 receptor = CB2 receptor (Homo sapiens, UniProt P34972); conditions: cited from earlier work
female Sabra mice [5] = test: Hot plate analgesia (centrally mediated pain); format: in vivo
Protocol: as §1, §2

female Sabra mice [6] = test: Tetrad: rearing (vertical movements) in an open field; format: in vivo; conditions: 20 mg/kg i.p.
Protocol: as §5

female Sabra mice [7] = test: Tetrad: ambulation (horizontal movements) in an open field; format: in vivo; conditions: 20 mg/kg i.p., open field 8 min, 30 or 60 min after injection; normalized; * = P<0.05 vs vehicle
Protocol: as §5

[8] = tested on: CB1−/− receptor knockout mice; test: Central effects in CB1−/− receptor knockout mice; format: in vivo; conditions: not shown
Protocol: as §4, §5

CB1 receptor = CB1 receptor (Rattus norvegicus, UniProt P20272); conditions: cited from earlier work
female Sabra mice [9] = test: Intestinal motility after antagonist pre-treatment (SR141716A, SR144528, capsazepine); format: in vivo; conditions: for reversal of inhibition of defecation by CB1 antagonist SR141716A / reversal of inhibition of defecation by CB2 antagonist SR144528: agonist 20 mg/kg; for reversal of inhibition of defecation by CB1 antagonist SR141716A: SR141716A 1 mg/kg i.p. 30 minutes before agonist; for reversal of inhibition of defecation by CB2 antagonist SR144528: SR144528 1 or 3 mg/kg i.p. 30 minutes before agonist
Protocol: (SR1, 1 mg/kg). SR1 was injected (i.p.) 30 minutes before the agonist. 60 minutes after (+)CBD-DMH the number of fecal pellets was recorded.
(SR2, 1 mg/kg). SR2 was injected (i.p.) 30 minutes before the agonist. 60 minutes after (+)-CBD-DMH the number of fecal pellets was recorded.
as §5, §3

female Sabra mice [10] = test: Hypothermia (rectal temperature); format: in vivo; conditions: 20 mg/kg i.p., * = P<0.05 vs vehicle
Protocol: as §5, §3

[11] = tested on: arachidonic acid-induced ear inflammation in the mouse; test: Arachidonic acid induced inflammation of the external ear; format: in vivo; conditions: for potency compared to indomethacin in ear inflammation, in words: (+)-CBD-DMH 40 or 10 mg/kg vs indomethacin 20 mg/kg
Protocol: Ear inflammation was measured by assessing ear tissue swelling after topical application of arachidonic acid, as described previously [Hanus (1999) id. ibid.]. Briefly, at various times after i.p. drug injections, arachidonic acid was applied to the inner surface of one ear (4.5 mg dissolved in […] ethanol). The opposite ear served as control (5 ethanol). Ear thickness was determined (in 0.01-mm units) by using a dial thickness gauge (Mitutoyo, Japan) every 15 minutes for 90 minutes, starting immediately after arachidonic acid application.

female Sabra mice [12] = test: Tetrad: catalepsy (immobility) on an elevated ring; format: in vivo; conditions: 20 mg/kg i.p., elevated ring 4 min; normalized; * = P<0.05 vs vehicle
Protocol: as §5

Sequence of CB1 receptor (P20272 whole entry): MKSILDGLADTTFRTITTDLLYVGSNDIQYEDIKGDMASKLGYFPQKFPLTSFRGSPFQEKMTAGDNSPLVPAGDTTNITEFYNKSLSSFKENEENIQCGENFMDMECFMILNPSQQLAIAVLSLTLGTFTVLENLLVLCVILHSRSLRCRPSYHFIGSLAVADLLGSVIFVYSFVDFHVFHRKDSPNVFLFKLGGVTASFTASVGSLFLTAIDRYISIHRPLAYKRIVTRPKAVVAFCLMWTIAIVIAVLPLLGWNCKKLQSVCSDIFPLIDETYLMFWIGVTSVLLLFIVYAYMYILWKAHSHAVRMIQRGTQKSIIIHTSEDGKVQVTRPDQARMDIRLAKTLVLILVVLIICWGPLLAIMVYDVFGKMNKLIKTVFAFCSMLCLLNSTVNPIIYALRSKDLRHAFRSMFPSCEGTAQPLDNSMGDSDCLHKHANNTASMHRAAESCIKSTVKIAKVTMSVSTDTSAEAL
Sequence of CB2 receptor (P34972 whole entry): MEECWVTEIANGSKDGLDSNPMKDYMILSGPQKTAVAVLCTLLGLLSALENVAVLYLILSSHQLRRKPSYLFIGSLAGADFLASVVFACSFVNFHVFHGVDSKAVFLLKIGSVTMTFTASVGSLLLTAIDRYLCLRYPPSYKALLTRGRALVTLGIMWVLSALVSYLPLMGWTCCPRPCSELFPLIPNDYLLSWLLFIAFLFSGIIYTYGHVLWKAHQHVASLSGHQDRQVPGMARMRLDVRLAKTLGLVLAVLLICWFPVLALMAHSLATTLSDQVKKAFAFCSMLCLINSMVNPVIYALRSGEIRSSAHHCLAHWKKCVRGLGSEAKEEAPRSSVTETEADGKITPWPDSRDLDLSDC

C=C(C)C1CCC(C)=CC1c1c(O)cc(C(C)(C)CCCCCC)cc1O (single isomer, unassigned; (+)) [+CBD−DMH, (+)-CBD-DMH]
second (inflammatory) phase of formalin-induced pain, in words [1]: completely inhibited the second phase; also recorded: almost completely inhibited; also recorded: almost completely prevented the second phase of pain
inhibition of defecation / intestinal motility, in words (female Sabra mice [2]; 60 minutes after injection): completely blocked
Inhibition of Intesitinal Motility (% MPE) (female Sabra mice [2]; defecation in open field 8 min, normalized, * = P<0.05 vs vehicle): 100* % MPE
effect on intestinal motility in CB1−/− knockout mice [3]: absence of inhibition of intestinal motility; also recorded: None of the drugs assessed ((+)-CBD-DMH, (+)-7-OH-CBD-DMH and Δ^9-THC had any effect; also recorded: no effects
central effects (tetrad), in words (female Sabra mice [4]): absence of central effects or small effects; also recorded: Lack of central effects
Kd (CB2 receptor; previously reported, Bisogno et al. 2001, read-out: affinity for the CB2 receptor (Kd)): 211 nM
Ki (CB2 receptor; second value of CB1/CB2 cell, data from Bisogno et al., 2001, read-out: CB2 Receptor Binding (Ki)): 210 nM
centrally mediated pain on hot plate, in words (female Sabra mice [5]; 20 mg/kg): not active; also recorded: not affected
Analgesia (Hot Plate) (% MPE) (female Sabra mice [5]; 20 mg/kg i.p., hot plate 55° C., max 45 sec, normalized, * = P<0.05 vs vehicle): 10 % MPE
effect on rearing in an open-field, in words (female Sabra mice [6]): modest effect
Vertical Movements (% MPE) (female Sabra mice [6]; open field 8 min, normalized, * = P<0.05 vs vehicle): 61 % MPE
Horizontal Movements (% MPE) (female Sabra mice [7]): 82 % MPE
central effects in CB1−/− receptor knockout mice [8]: None of the drugs assessed ((+)-CBD-DMH, (+)-7-OH-CBD-DMH and Δ^9-THC had any effect
Ki (CB1 receptor; first value of CB1/CB2 cell, data from Bisogno et al., 2001, read-out: CB1 Receptor Binding (Ki)): 17 nM
Kd (CB1 receptor; previously reported, Bisogno et al. 2001, read-out: affinity for the CB1 receptor (Kd)): 17.4 nM
reversal of inhibition of defecation by CB1 antagonist SR141716A (female Sabra mice [9]; listed as (+) CBD-DMH): almost fully reversed
reversal of inhibition of defecation by CB1 antagonist SR141716A (female Sabra mice [9]; listed as (+)-CBD-DMH): effectively antagonized; also recorded: partial reversal
reversal of inhibition of defecation by CB2 antagonist SR144528 (female Sabra mice [9]; listed as (+) CBD-DMH): not at all
reversal of inhibition of defecation by CB2 antagonist SR144528 (female Sabra mice [9]; listed as (+)-CBD-DMH): not at all; also recorded: did not prevent; also recorded: no reversal
effect of VR1 antagonist capsazepine on inhibition of defecation (female Sabra mice [9]; data not shown): did not affect
Hypothermia (Δ-Body Temp.) (female Sabra mice [10]): −0.3 °C
potency compared to indomethacin in ear inflammation, in words ([11]; listed as (+) CBD-DMH): as effective as indomethacin
potency compared to indomethacin in ear inflammation, in words ([11]; listed as (+)-CBD-DMH): equal potency as indomethacin; also recorded: as potent as indomethacin
potency compared to indomethacin in ear inflammation, in words ([11]; listed as (+)CBD-DMH): Equal potencies
inhibition of arachidonic acid-induced ear inflammation, in words ([11]; i.p., 10 to 40 mg/kg, ear thickness every 15 minutes for 90 minutes): almost completely inhibited
Catalepsy (Freezing of Movement) (% MPE) (female Sabra mice [12]): 16 % MPE
